Test results reported in US20250319100A1, “ANTI-TUMOR COMBINED PREPARATION COMPRISING HYDROXYPROGESTERONE CAPROATE AND USE THEREOF” (SHENZHEN EVERGREEN THERAPEUTICS CO., LTD., priority 2021, published 2025).

Experiments:
[1] = test system: CD8+ T cells in tumor tissue; assay: Infiltration of CD8+ T cells in tumor tissue (CD8 staining of paraffin tumor sections); type: in vivo, Balb/c mice; conditions: FIGS. 2 and 3, CD8 staining density IOD/area, p<0.01 OHPC group vs control group
Method: FIG. 2 illustrates the infiltration of CD8 T cells in mouse tumors post-administration (400× magnification). FIG. 3 presents the analysis of CD8 staining density on tumor sections after administration, represented in integrated optical density (IOD)/area, where ** denotes p<0.01 compared between the OHPC group and the control group. At the conclusion of the experiment, tumor tissue was embedded in paraffin, sectioned, and stained for CD markers. This was conducted to compare the infiltration of CD8+ T cells within tumors across different groups.

4T1-hPD-L1 cells = assay: Tumor growth inhibition in Balb/c mice subcutaneously inoculated with 4T1 cells overexpressing human PD-L1; type: in vivo; conditions: for Tumor growth inhibition (result in words): FIG. 1, tumor volume growth trend post-administration
Method: Antibody Anti-PD-L1 was purchased from Rongchang Biopharmaceuticals (Yantai) Co., Ltd., batch number: RC98-1-A20170426, with a storage solution concentration of 6.87 mg/ml, dissolved in 0.9% sodium chloride solution. Prior to each administration, the Anti-PD-L1 was prepared by diluting it in 0.9% sodium chloride solution to obtain a concentration of 1 mg/ml.
Hydroxyprogesterone Caproate (OHPC) was purchased from Hongyan Pharmaceutical and Chemical Co., Ltd., as a powder. Prior to each administration, OHPC powder was dissolved in DMSO. Once fully dissolved, it was diluted in sesame oil to obtain an OHPC concentration of 4 mg/ml for the investigational drug solution.
Murine breast cancer 4T1 cells were purchased from Beijing Biosynthgene Biotech Co., Ltd. Cells were cultured at 37° C. and 5% CO2 in DMEM culture medium containing 10% inactivated fetal bovine serum. The 4T1 cells were genetically modified using conventional methods to overexpress human PD-L1, and these cells were named 4T1-hPD-1.
Female Balb/c mice (6-9 weeks old, weighing 16-22 g), SPF grade, were subcutaneously inoculated with 5×10^4 cells/0.1 ml concentration of 4T1-hPD-1 cells suspended in PBS at a volume of 0.1 ml on the right side. When the average tumor volume reached approximately 100 mm3, appropriate mice were selected based on tumor volume and weight and were evenly distributed into four experimental groups, each with 8 mice. Drug administration commenced on the same day as outlined in the table below:
Throughout the observation period, tumor volume and animal weight were measured weekly, and the values were recorded. Upon completion of the observation period, the experiment was concluded.
Measurements of tumor volume were conducted twice a week post-grouping using a vernier caliper. Prior to euthanasia, tumor dimensions including the longest and shortest diameters were measured. The formula used to calculate tumor volume: Tumor Volume=0.5×Longest Diameter×Shortest Diameter^2.
Ti represents the mean tumor volume of the treatment group on day i of drug administration, TO denotes the mean tumor volume of the treatment group on day 0 of drug administration. Vi stands for the mean tumor volume of the solvent control group on day i of drug administration, and VO indicates the mean tumor volume of the solvent control group on day 0 of drug administration.
Original data from observations and measurements were recorded. Analysis and processing were based on this raw data. Results were expressed as Mean±Standard Error of Mean (SEM). Statistical analysis was performed on tumor volume data, where P<0.05 was considered statistically significant. Analysis was conducted considering both statistical and biological significance.

For `CCCCCC(=O)O[C@]1(C(C)=O)CC[C@H]2[C@@H]3CCC4=CC(=O)CC[C@]4(C)[C@H]3CC[C@@]21C` [OHPC, 17α-Hydroxyprogesterone caproate], the “Infiltration of CD8+ T cells in tumor tissue (result in words)” value [1] was “significantly enhances the infiltration of CD8+ T cells”, the “Infiltration of CD8+ T cells in tumor tissue (result in words)” value ([1]; listed as Hydroxyprogesterone Caproate (OHPC)) was “notably enhanced the infiltration of CD8+ T cells” and the “Tumor Volume Day 17” value (4T1-hPD-L1 cells; Day 17, Anti-PD-L1 10 mg/kg intravenous and/or OHPC 20 mg/kg intramuscular, twice per week, Mean ± Standard Error) was 1203 ± 384 mm^3. For the same compound, the “TGITV (tumor growth inhibition rate by tumor volume)” value (4T1-hPD-L1 cells; Day 17 versus vehicle (PBS) control, Anti-PD-L1 10 mg/kg intravenous and/or OHPC 20 mg/kg intramuscular, twice per week) was −14%, the “Tumor growth inhibition (result in words)” value (4T1-hPD-L1 cells) was “no inhibitory effect” and the “Tumor growth inhibition (result in words)” value (4T1-hPD-L1 cells; listed as hydroxyprogesterone caproate) was “augments the anti-tumor activity of the monoclonal antibody Anti-PD-L1”. The “Tumor Volume Pre-administration” value (4T1-hPD-L1 cells; baseline before first dose, Mean ± Standard Error, 8 mice per group) was 87 ± 24 mm^3.
